Assay results as given in paper PMC12281475, “Mediator Kinase Inhibitor Selectivity and Activity in Colorectal Cancer” (ACS Chemical Biology, 2025).

Test system: COLO205 cells
Test: Phospho-proteome profiling (CDK-motif antibody enrichment, LC-MS/MS)
Assay type: cell-based, human
Settings: for CMPD 1/DMSO / MEAN MS SIGNAL CMPD 1 6 H: 6 H
From the text: We phospho-proteome profiled COLO205 cells to identify Mediator kinase substrates following chemical inhibition of Mediator kinase activity. Given the confirmed CDK8/19 selectivity of our compounds in binding and enzymatic activity assays, we employed a pool of antibodies selective for the proline-rich motifs phosphorylated by the CDK family to enrich potential CDK8/19 substrates for LC-MS/MS analysis.
Adherent COLO205 cells were lysed with a urea buffer, lysates were reduced with DTT, alkylated with iodoacetimide and digested with trypsin-tosylphenylalanyl chloromethyl ketone. Digested peptides were immunoprecipitated using a pool of motif antibodies from Cell Signaling Technologies (US) comprising: phospho-MAPK substrate (PXS*P or S*PXR/K, #2325, RRID:AB_331820), phospho-CDKs substrate ((K/H)-S*P, #2324; RRID:AB_2244779), phospho-PLK binding motif (ST*P, #5243; RRID:AB_10891778) and phospho-tPE motif (T*PE, #3004; RRID:AB_10890649)-of phospho-MAPK (2325), phospho-CDK (2324), phospho-PLK (5243) and phospho-tPE (C3004) motif-recognizing antibodies immobilized onto protein A/G beads. Immunoprecipitated peptides were analyzed using an LTQ-Orbitrap-Velos. Sequences were assigned to the MS/MS spectra and evaluated using SEQUEST 3G and SORCERER 2 (Sage-N Research v4.0, Milpitas). Quantitative data was evaluated and clustered in Spotfire Decision Site (www.spotfire.tibco.com) and normalized using quartile normalization. Functional annotation and pathway analysis used DAVID (https://david.ncifcrf.gov/). […]
Phospho-proteome analyses
Adherent COLO205 cells were washed with PBS and cells lysed using urea lysis buffer (9 M Urea, 20 mM HEPES, pH 8.0, 1 mM beta-glycerophosphate, 1 mM sodium vanadate, 2.5 mM sodium pyrophosphate) and stored at -80 °C prior to analysis. The supernatants were reduced with 100 mM DTT for 30 minutes at 55 °C, followed by alkylation with 50 mM iodoacetimide for 15 minutes at ambient temperature in the dark.
The samples were diluted in 20 mM HEPES, pH 8.0 and digested overnight with 10 ug/mL trypsin-tosylphenylalanyl chloromethyl ketone in 1 mM HCl. Digested peptides were acidified with 1% formic acid and then desalted over 360-mg SEP PAK C18 columns (Waters, UK). Peptides were eluted with 40% acetonitrile in 0.125% formic acid, dried under a vacuum and the lyophilised peptides used for immunoprecipitation.
A pool of motif antibodies from Cell Signaling Technologies (US) comprising: phospho-MAPK substrate (PXS*P or S*PXR/K, #2325, RRID:AB_331820), phospho-CDKs substrate ((K/H)S*P, #2324; RRID:AB_2244779), phospho-PLK binding motif (ST*P, […]
RRID:AB_10890649), were immobilised onto protein A/G beads overnight at 4 °C. The lyophilised peptides were resuspended in MOPS buffer (50 mM MOPS, pH 7.2, 10 mM KH2PO4, 50 mM NaCl) and centrifuged for 5 mins at 13,500 rpm in an Eppendorf benchtop microcentrifuge. The supernatants were incubated with the motif-bound beads for 2.5 hours at 4 °C . The beads were harvested by centrifugation at 4000 rpm in an Eppendorf benchtop microcentrifuge for 5 mins, washed with MOPS buffer twice and washed again 5 times with deionised water. The peptides were eluted off the beads using 0.125% formic acid, were desalted and dried under a vacuum. The lyophilised immunoprecipitated peptides were resuspended in 0.125% formic acid and separated on a capillary column packed with Magic C18 AQ reversed-phase resin.
Peptides were eluted using a 72-minute linear gradient of acetonitrile in 0.125% formic acid delivered at 280nL/min. Samples were analysed using an LTQ-Orbitrap-Velos.
MS Parameter Settings were: MS Run Time 96 min, MS1 Scan Range (300.0 – 1500.00), Top 20 MS/MS (Min Signal 500, Isolation Width 2.0, Normalized Coll.
Charge State Rejection Enabled, Charge State 1+ Rejected, Dynamic Exclusion Enabled, Repeat Count 1, Repeat Duration 35.0, Exclusion List Size 500, Exclusion Duration 40.0, Exclusion Mass Width Relative to Mass, Exclusion Mass Width 10ppm). […]

[1] = AHCTF1 peptide 1205/1240 - STlrSTplaSpspSpgrSpqr - 1225/1265
[2] = AHNAK peptide 5778 - hrSnSfSderefSgpsTpTglefeggevsleggk - 5811
[3] = AKNA peptide 429 - vpqefqTpeqatelvhqlqedyhr - 452
[4] = ANLN peptide 381 - cqehSkeSparsTphrTpiiTpntk - 405
[5] = ARHGAP19 peptide 443 - knpTpesvaigelk - 456
[6] = ARID4B peptide 922/1008 - kaefpssgsnsvlnTpptTpespssvtvtegsr - 954/1040
[7] = ATN1 peptide 158 - pyhppplfppSpqppdstpr - 177
[8] = BAP1 peptide 513 - sanptrpsSpvtshisk - 529
[9] = BCL11B peptide 367 - lrelagnSSTpppvSpgrgnpmhr - 390
[10] = CC2D1A peptide 200 - gpasTpTySpaptqpapr - 217
[11] = CDT1 peptide 72 - lsvdevsSpstpeapdipacpspgqk - 97
[12] = CDT1 peptide 72 - lsvdevsspsTpeapdipacpSpgqk - 97
[13] = CHAMP1 peptide 198 - lapvpspepqkpapvSpesvk - 219
[14] = CHD4 peptide 1530 - mSqpgSpSpkTpTpSTpgdTqpnTpapvppaedgik - 1565
[15] = CHD4 peptide 1531 - SqpgSpSpkTptpstpgdtqpntpapvppaedgik - 1565
[16] = CHD4 peptide 1540 - TpTpSTpgdtqpnTpapvppaedgik - 1565
[17] = CHD4 peptide 1540 - TptpStpgdtqpnTpapvppaedgikieenslk - 1572
[18] = ECT2 peptide 403 - krpSaehSlSigSlldiSnTpeSsinYgdtpk - 434
[19] = EEF1G peptide 379 - gqelafplSpdwqvdyesytwr - 100
[20] = EGR1 peptide 6 - aemqlmsplqisdpfgsfphSptmdnypk -34
[21] = EGR1 peptide 6 - aemqlmsplqisdpfgsfphspTmdnypk - 34
[22] = EPC2 peptide 343 - aealitsqqpTpetlpvink - 362

Cn1cc(-c2ccc(-c3cncc(Cl)c3N3CCC4(CCNC4=O)CC3)cc2)cn1 [CCT251545]
CMPD 1/DMSO [1]: 1.802
MEAN MS SIGNAL CMPD 1 6 H [1]: 238204
CMPD 1/DMSO [2]: 1.997
MEAN MS SIGNAL CMPD 1 6 H [2]: 301575
CMPD 1/DMSO [3]: 0.569
MEAN MS SIGNAL CMPD 1 6 H [3]: 41850
CMPD 1/DMSO [4]: 0.512
MEAN MS SIGNAL CMPD 1 6 H [4]: 62532
CMPD 1/DMSO [5]: 0.589
MEAN MS SIGNAL CMPD 1 6 H [5]: 62950
CMPD 1/DMSO [6]: 2.069
MEAN MS SIGNAL CMPD 1 6 H [6]: 72000
CMPD 1/DMSO [7]: 0.526
MEAN MS SIGNAL CMPD 1 6 H [7]: 1231725
CMPD 1/DMSO [8]: 1.826
MEAN MS SIGNAL CMPD 1 6 H [8]: 26677
CMPD 1/DMSO [9]: 1.888
MEAN MS SIGNAL CMPD 1 6 H [9]: 33472
CMPD 1/DMSO [10]: 0.625
MEAN MS SIGNAL CMPD 1 6 H [10]: 70653
CMPD 1/DMSO [11]: 0.368
MEAN MS SIGNAL CMPD 1 6 H [11]: 55322
CMPD 1/DMSO [12]: 0.429
MEAN MS SIGNAL CMPD 1 6 H [12]: 15418
CMPD 1/DMSO [13]: 2.031
MEAN MS SIGNAL CMPD 1 6 H [13]: 849660
CMPD 1/DMSO [14]: 0.456
MEAN MS SIGNAL CMPD 1 6 H [14]: 51533
CMPD 1/DMSO [15]: 0.310
MEAN MS SIGNAL CMPD 1 6 H [15]: 35479
CMPD 1/DMSO [16]: 0.193
MEAN MS SIGNAL CMPD 1 6 H [16]: 31383
CMPD 1/DMSO [17]: 0.000
MEAN MS SIGNAL CMPD 1 6 H [17]: 0
abundance of phospho-peptide corresponding to phospho-STAT1 SER727 (COLO205, 350 nM, 6 h): decrease in abundance
phospho-peptides whose label-free intensities remained unchanged (COLO205, 350 nM, 6 h): 95%
phosphorylation at MED13 THR565, MED14 SER1112 and MED26 SER314 (COLO205, 350 nM, 6 h): reducing phosphorylation
phosphorylation of POLR2A CTD phospho-peptides (COLO205, 350 nM, 6 h): no evidence of decreased phosphorylation
number of phospho-peptides consistently decreased by > 1.5-fold (COLO205, 350 nM, 6 h, both independent biological repeats, 2,734 phospho-peptides identified): 123
number of individual proteins represented by the decreased phospho-peptides (COLO205, 350 nM, 6 h, > 1.5-fold decrease): 95
CMPD 1/DMSO [18]: 0.501
MEAN MS SIGNAL CMPD 1 6 H [18]: 22710
CMPD 1/DMSO [19]: 0.521
MEAN MS SIGNAL CMPD 1 6 H [19]: 184020
CMPD 1/DMSO [20]: 0.400
MEAN MS SIGNAL CMPD 1 6 H [20]: 23807
CMPD 1/DMSO [21]: 0.452
MEAN MS SIGNAL CMPD 1 6 H [21]: 16379
CMPD 1/DMSO [22]: 0.365
MEAN MS SIGNAL CMPD 1 6 H [22]: 24823
CMPD 1/DMSO (EZH2 peptide 46 - grlpnnssrpstpTinvlesk - 376): 1.970
